Measurements reported in patent US20260234207A1, “Keratin YK93-8, and Preparation Method Therefor, Pharmaceutical Composition Thereof and Use Thereof” (INSTITUTE OF MATERIA MEDICA, CHINESE ACADEMY OF MEDICAL …, priority 2022, published 2026).
Structures can show the parent of a compound that is named as a salt. Where two headings read alike, the source gives them in different places.

How the values were obtained:
[1] = tested on: acetic acid-induced writhing of mice; assay: Pharmacodynamic test on mouse pain model (acetic acid-induced writhing); assay type: in vivo, Male Kunming mice; details: 1% acetic acid intraperitoneally, writhing within 15 minutes
Procedure: • Animals: Male Kunming mice; • Drugs: Tramadol Hydrochloride Sustained Release Tablets, Glacial acetic acid, YK93-8; • Instruments: electronic balance, timer • Experiment grouping: • Normal control group; • Positive control group: Tramadol Hydrochloride group; • Protein YK93-8, (0.5 g/kg) group. • Method:
Mice in the YK93-8 (0.5 g/kg) group were administered by gavage, while mice in the model group were given an equal volume of CMC-Na once a day for 7 consecutive days. 30 minutes after the last administration, 1% acetic acid was administered intraperitoneally, and the writhing times of mice within 15 minutes was recorded, and the inhibition rate of drug-induced writhing reaction was calculated. The observation criteria were concave abdominal cavity, extended hind limbs, and raised buttocks.
The inhibition rate was calculated by (Mean number of writhing reactions in the normal control group−Mean number of writhing reactions in the treatment group)/Mean number of writhing reactions in the normal control group *100%.

EL-4 lymphoma = tested on: EL-4 lymphoma
Procedure: (§1) • Animals: Male C57BL/6J mice • Drugs: Cyclophosphamide for injection (CTX), YK93-8 • Instruments: electronic balance, Five classified blood cell analyser • Experiment grouping: • Normal control group; • Positive control group: cyclophosphamide (100 mg/kg); • Protein YK93-8, (2 g/kg) group. • Method:
Subcutaneous inoculation of EL-4 cell suspension to replicate a mouse lymphoma model: The EL-4 tumor tissue was ground into a suspension using a glass homogenizer, the tumor suspension was aspirated with a syringe, the number of live cells was calculated, the cell concentration was adjusted to 2.0*10^6/ml with physiological saline, and then the suspension was injected into the left armpit of mice with 0.2 ml/mouse. On the next day, mice were randomly divided into a normal control group, a cyclophosphamide (100 mg/kg) group, and a YK93-8 (2 g/kg) group. Cyclophosphamide was injected intraperitoneally for single time, mice in the YK93-8 (2 g/kg) group were orally administered by gavage daily for 13 consecutive days, while mice in the normal control group were administered orally with an equal volume of sodium carboxymethyl cellulose. On the day of treatment, weight was measured, 20 μl of blood was obtained from the orbital blood and the routine blood analysis was performed. The tumor blocks were stripped, weighed and photographed, and the tumor suppression rate was calculated.
(§2) The tumor suppression rate [(The average weight of the tumor in the normal control group—the average weight of the tumor in the experimental group)/The average weight of the tumor in the normal control group×100%] and average value, standard deviation and standard errors of tumor weight were calculated.

Lewis lung cancer = tested on: Lewis lung cancer
Procedure: Subcutaneous inoculation of Lewis cell suspension to replicate mouse Lewis lung cancer model: The Lewis tumor tissue was ground into a suspension with a glass homogenizer, the tumor suspension was aspirated with a syringe, the number of live cells was calculated, the concentration of the cells was adjusted to 2.6*10^6/ml with physiological saline, and then the suspension was injected to the left armpit of the mouse with 0.2 ml/mouse. On the next day, the mice were randomly divided into normal control group, cyclophosphamide (100 mg/kg) group, and YK93-8 (0.5 g/kg) group. Cyclophosphamide was injected intraperitoneally for single time, mice in YK93-8 group were given intragastric administration every day for 10 consecutive days, mice in the normal control group were orally given the equal volume of sodium carboxymethyl cellulose. On the day of the treatment, the weight was measured, 20 μl of blood was obtained from the orbital blood and the routine blood analysis was performed. The tumor blocks were stripped, weighed and photographed, and the tumor suppression rate was calculated.
as §2, with “group×100%] and the average value,” for “group×100%] and average value,”

B16F10 melanoma = tested on: B16F10 melanoma
Procedure: as §1, with “female” for “Male”, “mice;” for “mice”, “cyclophosphamide group” for “cyclophosphamide”
Subcutaneous inoculation of B16F10 cell suspension to replicate a mouse melanoma model: Under sterile conditions, the tumor block was removed, ground into tumor fluid, the concentration was adjusted with physiological saline to 2.58×10^6/ml, and 0.2 ml was taken to evenly inoculate subcutaneously on the armpit back of mice. On the next day, the animals were randomly grouped and administration began (recorded as Day 0). CTX (100 mg/kg) was administered once a week, YK-93-8 (2 g/kg) was administered daily, and mice in the normal control group were orally administered an equal volume of sodium carboxymethyl cellulose. On the day of treatment, weight was measured, 20 μL of blood was obtained by taking blood from the eye socket and the blood routine analysis was performed, the tumor block was peeled off, weighed and photographed, and the tumor suppression rate was calculated.
as §2

[2] = tested on: mouse prostatic hyperplasia model; assay: Pharmacodynamic test on mouse prostatic hyperplasia model (propionate testosterone, androgen loading); details: for Average weight / wet weight of the prostate: 30 days of administration; for prostate index: 30 days, wet weight of the prostate (mg)/body weight (g)
Procedure: Preparation of experimental animals: The experimental animals were adapted to the experimental environment (temperature 22° C.±2° C., relative humidity 50%±2%) for 1 day.
Subcutaneous injection of propionate testosterone to replicate mice prostatic hyperplasia model: Mice were randomly grouped 10 in each group before the model being established. Propionate testosterone (0.01 mg/kg) in soybean oil was injected subcutaneously, once a day for 30 consecutive days. Mice in the normal control group were injected subcutaneously with an equal volume of sodium carboxymethyl cellulose. […] Mice were weighed on the next day. After 30 days of administration, mice were weighed, executed. The prostate was excised through a median incision in the lower abdomen, the wet weight was weighed, and the prostate index was calculated by the wet weight of the prostate (mg)/body weight of the mouse (g).
The average value, standard deviation and standard error of the prostate index in each group were calculated. The data from the groups were compared with each other by T.TEST, and P<0.05 was considered as a significant difference.

[3] = tested on: lactation of pregnant mice; assay: Pharmacodynamic test on lactation of pregnant mice; assay type: in vivo, female Kunming pregnant mice; details: 2 g/kg by gavage, 13 days
Procedure: • Animals: female Kunming pregnant mice, weight: 30-50 grams • Drug: YK93-8 • Instruments: electronic balance • Experiment grouping: • Normal control group; • Protein YK93-8, (2 g/kg) group. • Method:
The parturition date of each pregnant mouse was recorded and the mice were randomly divided into normal control group and YK 93-8 group based on the parturition date.
YK93-8 (2 g/kg) was administered by gavage, and the weight and weight gain of the young mice were recorded daily. After 13 days of administration, the female mouse was euthanized using cervical dislocation method, and […] of blood samples were collected from the eye socket, left standing at room temperature for 1-2 hours, centrifuged 1000 g for 20 minutes. The content of prolactin in serum was measured.
The average daily weight gain of young mice (lactation yield of female mice) and serum prolactin content of female mice in each group were calculated.

[4] = 0.1 g/kg intraperitoneally, single time
[5] = 100 mg/kg intraperitoneally, single time, P<0.05
[6] = 2 g/kg by gavage daily for 13 days
[7] = 0.5 g/kg intragastric every day for 10 days

COc1cccc(C2(O)CCCCC2CN(C)C)c1 (stereo not drawn) [Tramadol Hydrochloride]
Number of writhing ([1]; 50 mg/kg): 0.0 ± 0.00

O=P1(N(CCCl)CCCl)NCCCO1 (stereo not drawn) [cyclophosphamide, Cyclophosphamide]
Tumor suppression (%) (EL-4 lymphoma; [4]): 95.67% | Tumor weight (EL-4 lymphoma; [4]): 0.12 ± 0.03 g | leukocytes (blood routine test) (EL-4 lymphoma; [5]): significantly reduced | lymphocytes (blood routine test) (EL-4 lymphoma; [5]): significantly reduced | monocytes (blood routine test) (EL-4 lymphoma; [5]): significantly reduced | neutrophils (blood routine test) (EL-4 lymphoma; [5]): significantly reduced | Change of weight (g) Before administration (Lewis lung cancer; 0.1 g/kg group): 17.60 ± 0.59 g | Change of weight (g) After administration (Lewis lung cancer; [4]): 19.95 ± 0.77 g | Tumor suppression (%) (Lewis lung cancer; [4]): 95.35% | Tumor weight (Lewis lung cancer; [4]): 0.14 ± 0.09 g | Change of weight (g) Before administration (B16F10 melanoma; 0.1 g/kg group): 18.97 ± 0.55 g | Change of weight (g) After administration (B16F10 melanoma; 0.1 g/kg once a week): 19.07 ± 1.46 g | Tumor suppression (%) (B16F10 melanoma; 0.1 g/kg once a week): 85.82% | Tumor weight (B16F10 melanoma; 0.1 g/kg once a week): 0.26 ± 0.11 g

CC(C)(C)NC(=O)[C@H]1CC[C@H]2[C@@H]3CC[C@H]4NC(=O)C=C[C@]4(C)[C@H]3CC[C@]12C [finasteride]
Average weight ([2]; 1 mg/kg orally): 43.5 ± 3.5 g | wet weight of the prostate ([2]; 1 mg/kg orally): 31.8 ± 4.8 mg | prostate index ([2]; 1 mg/kg orally): 0.75 ± 0.12 | Average weight ([2]; 3 mg/kg orally): 40.7 ± 3.1 g | wet weight of the prostate ([2]; 3 mg/kg orally): 29.2 ± 1.4 mg | prostate index ([2]; 3 mg/kg orally): 0.72 ± 0.08

B1: YK93-8: keratin with the amino acid sequence shown in SEQ ID NO.1, expressed in Escherichia coli, band around 63 KD; protein of Example 3 (protein, listed as Manis pentadactyla)
chain: MSCRSYRVSSGRQIGNFSSCSAVMPQSLSRFRASSVSCRSGPGFRGLGGFGSRSVIAFGSCPPRMAAVGPRPIRCGVGFSAGSGLAFGLGDSCGAGLGFGTGSGLGYGFGGPGFGYRIGGVGVPAAPSITAVTVNQSLLTPLNLEIDPNAQRVKRDEKEQIKTLNNKFASFIDKVRFLEQQNKLLETKWNFLQDQKGVQSNLEPLFENYVANLRRQLDIVSSDQARLETERNNMQDVLEGFKKKYEEEVVFRANAENEFVALKKDVDAAFLNKSDLEANVDALIQEIDFLKNLYMAEIQLLQSHISDTSVIVKMDNSRDLNFDGIIAEVKAQYEEVARRSRADAEAWYQTKYEEMRMTAGQHSDNLRNTRDEINELTRVIQRLKAEIEHTKAQRAKLEAAIAEAEQQGEAALNDAKCKLADLEAALQQAKQDMARQLREYQELMNIKLALDIEIATYRRLLEGEEIRICEGVGPVNISVSSSRGGVVCGPEPLLTSSTLSRGGVTFSGGSSIRSSGACGLSLGGSRVVAAGGDVLSAGSRGGSVLVGDACAPSIPCPLPTDGGFSSCSGGRSSLGSSVRFVSTTTSRRTKY
Tumor suppression (%) (EL-4 lymphoma; [6]): 13.18% | Tumor weight (EL-4 lymphoma; [6]): 2.44 ± 0.23 g | weight gain of young mice (lactation yield of female mice) [3]: no significant effect | serum prolactin content in female mouse ([3]; vs normal control group): to some extent increase | Change of weight (g) Before administration (Lewis lung cancer; 0.5 g/kg group): 17.91 ± 0.26 g | Change of weight (g) After administration (Lewis lung cancer; [7]): 21.93 ± 0.93 g | Tumor suppression (%) (Lewis lung cancer; [7]): 27.83% | Tumor weight (Lewis lung cancer; [7]): 2.16 ± 0.47 g | wet weight of the prostate ([2]; 0.5 g/kg orally): 44.3 ± 9.3 mg | prostate index ([2]; 0.5 g/kg orally): 1.12 ± 0.20 | Change of weight (g) After administration (B16F10 melanoma; 2 g/kg daily): 19.78 ± 0.76 g | Tumor suppression (%) (B16F10 melanoma; 2 g/kg daily): 50.18% | Tumor weight (B16F10 melanoma; 2 g/kg daily): 0.90 ± 0.41 g | Change of weight (g) Before administration (B16F10 melanoma; 2 g/kg group): 19.20 ± 0.54 g | Number of writhing ([1]; 0.5 g/kg by gavage once a day for 7 days): 13.76 ± 11.84
